Consider seven molecules from ChEMBL document CHEMBL5291721, “A preclinical secondary pharmacology resource illuminates target-adverse drug reaction associations of marketed drugs” (Nat Commun, 2023).

In test [1] the target is Histamine H3 receptor (Homo sapiens, UniProt Q9Y5N1).
Test [2] has as its target T1, Prostaglandin G/H synthase 1 (Homo sapiens, UniProt P23219). The test is classed as functional.
In test [3] the target is T2, Amine oxidase [flavin-containing] A (Homo sapiens, UniProt P21397).
T2 sequence (P21397 whole entry): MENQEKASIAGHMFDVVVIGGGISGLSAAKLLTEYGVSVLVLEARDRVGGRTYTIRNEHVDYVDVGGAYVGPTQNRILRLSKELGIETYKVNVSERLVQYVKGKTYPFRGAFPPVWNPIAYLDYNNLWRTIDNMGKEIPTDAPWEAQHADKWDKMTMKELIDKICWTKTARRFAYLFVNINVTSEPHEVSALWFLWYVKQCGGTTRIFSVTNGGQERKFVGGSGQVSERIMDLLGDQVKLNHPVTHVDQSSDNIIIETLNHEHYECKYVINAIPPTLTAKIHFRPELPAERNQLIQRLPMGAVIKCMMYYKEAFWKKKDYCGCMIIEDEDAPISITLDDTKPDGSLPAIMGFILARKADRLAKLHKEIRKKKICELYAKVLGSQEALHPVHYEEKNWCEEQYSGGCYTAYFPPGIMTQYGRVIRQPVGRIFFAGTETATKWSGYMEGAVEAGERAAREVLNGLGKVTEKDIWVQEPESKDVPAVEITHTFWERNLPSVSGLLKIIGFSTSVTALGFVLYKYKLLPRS
Type of test: functional.

The target of test [4] is T3, Thromboxane A2 receptor (Homo sapiens, UniProt P21731).
T3 sequence (P21731 whole entry): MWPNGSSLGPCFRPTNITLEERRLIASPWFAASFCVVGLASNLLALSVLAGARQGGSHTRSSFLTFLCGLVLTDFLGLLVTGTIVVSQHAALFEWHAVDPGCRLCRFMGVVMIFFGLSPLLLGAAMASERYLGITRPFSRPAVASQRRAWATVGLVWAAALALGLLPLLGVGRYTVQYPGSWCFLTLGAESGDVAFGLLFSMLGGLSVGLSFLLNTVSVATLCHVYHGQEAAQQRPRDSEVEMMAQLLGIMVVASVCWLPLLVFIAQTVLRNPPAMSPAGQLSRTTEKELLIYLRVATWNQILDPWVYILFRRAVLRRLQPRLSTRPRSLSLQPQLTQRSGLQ
The test is classed as functional, cell-based.

Test [5] deals with 5-hydroxytryptamine receptor 2B (Homo sapiens, UniProt P41595). Type of test: functional, cell-based.
Chain of 5-hydroxytryptamine receptor 2B (P41595 whole entry): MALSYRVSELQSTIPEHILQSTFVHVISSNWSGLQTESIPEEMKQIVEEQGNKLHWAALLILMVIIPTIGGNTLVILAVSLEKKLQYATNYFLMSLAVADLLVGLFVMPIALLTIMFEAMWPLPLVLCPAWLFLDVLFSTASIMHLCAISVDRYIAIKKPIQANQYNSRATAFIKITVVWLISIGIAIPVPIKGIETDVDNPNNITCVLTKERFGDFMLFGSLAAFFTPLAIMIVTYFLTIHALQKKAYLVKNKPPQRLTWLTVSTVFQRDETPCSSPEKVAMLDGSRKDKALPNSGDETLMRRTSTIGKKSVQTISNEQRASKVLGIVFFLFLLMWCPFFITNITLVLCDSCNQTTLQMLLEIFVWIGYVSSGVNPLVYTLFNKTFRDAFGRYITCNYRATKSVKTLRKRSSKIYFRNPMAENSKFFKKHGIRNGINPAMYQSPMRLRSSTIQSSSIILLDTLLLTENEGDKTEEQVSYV
For test [6], the target named is Sodium-dependent dopamine transporter (Homo sapiens, UniProt Q01959).
Chain of Sodium-dependent dopamine transporter (Q01959 whole entry): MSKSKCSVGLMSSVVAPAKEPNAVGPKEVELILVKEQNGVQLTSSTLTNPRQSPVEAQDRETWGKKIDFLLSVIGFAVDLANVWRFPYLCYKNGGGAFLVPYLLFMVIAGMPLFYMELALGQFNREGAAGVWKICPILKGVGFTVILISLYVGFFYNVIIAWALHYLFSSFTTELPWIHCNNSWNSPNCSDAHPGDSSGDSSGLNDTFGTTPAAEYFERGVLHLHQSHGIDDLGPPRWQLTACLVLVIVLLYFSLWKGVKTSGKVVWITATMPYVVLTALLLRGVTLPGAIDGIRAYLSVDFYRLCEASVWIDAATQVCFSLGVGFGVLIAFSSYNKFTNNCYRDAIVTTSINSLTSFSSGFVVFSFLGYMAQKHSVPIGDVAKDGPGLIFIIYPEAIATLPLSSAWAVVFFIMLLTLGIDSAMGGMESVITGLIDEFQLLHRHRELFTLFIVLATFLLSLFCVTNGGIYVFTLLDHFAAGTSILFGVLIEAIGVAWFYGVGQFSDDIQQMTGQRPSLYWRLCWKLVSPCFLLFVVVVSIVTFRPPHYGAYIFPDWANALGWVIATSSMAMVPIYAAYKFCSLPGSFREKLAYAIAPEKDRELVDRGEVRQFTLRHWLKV
The target of test [7] is Acetylcholinesterase (Homo sapiens, UniProt P22303). Type of test: functional.
The target of test [8] is cGMP-inhibited 3',5'-cyclic phosphodiesterase 3A (Homo sapiens, UniProt Q14432). The test is classed as functional.
Chain of cGMP-inhibited 3',5'-cyclic phosphodiesterase 3A (Q14432 whole entry): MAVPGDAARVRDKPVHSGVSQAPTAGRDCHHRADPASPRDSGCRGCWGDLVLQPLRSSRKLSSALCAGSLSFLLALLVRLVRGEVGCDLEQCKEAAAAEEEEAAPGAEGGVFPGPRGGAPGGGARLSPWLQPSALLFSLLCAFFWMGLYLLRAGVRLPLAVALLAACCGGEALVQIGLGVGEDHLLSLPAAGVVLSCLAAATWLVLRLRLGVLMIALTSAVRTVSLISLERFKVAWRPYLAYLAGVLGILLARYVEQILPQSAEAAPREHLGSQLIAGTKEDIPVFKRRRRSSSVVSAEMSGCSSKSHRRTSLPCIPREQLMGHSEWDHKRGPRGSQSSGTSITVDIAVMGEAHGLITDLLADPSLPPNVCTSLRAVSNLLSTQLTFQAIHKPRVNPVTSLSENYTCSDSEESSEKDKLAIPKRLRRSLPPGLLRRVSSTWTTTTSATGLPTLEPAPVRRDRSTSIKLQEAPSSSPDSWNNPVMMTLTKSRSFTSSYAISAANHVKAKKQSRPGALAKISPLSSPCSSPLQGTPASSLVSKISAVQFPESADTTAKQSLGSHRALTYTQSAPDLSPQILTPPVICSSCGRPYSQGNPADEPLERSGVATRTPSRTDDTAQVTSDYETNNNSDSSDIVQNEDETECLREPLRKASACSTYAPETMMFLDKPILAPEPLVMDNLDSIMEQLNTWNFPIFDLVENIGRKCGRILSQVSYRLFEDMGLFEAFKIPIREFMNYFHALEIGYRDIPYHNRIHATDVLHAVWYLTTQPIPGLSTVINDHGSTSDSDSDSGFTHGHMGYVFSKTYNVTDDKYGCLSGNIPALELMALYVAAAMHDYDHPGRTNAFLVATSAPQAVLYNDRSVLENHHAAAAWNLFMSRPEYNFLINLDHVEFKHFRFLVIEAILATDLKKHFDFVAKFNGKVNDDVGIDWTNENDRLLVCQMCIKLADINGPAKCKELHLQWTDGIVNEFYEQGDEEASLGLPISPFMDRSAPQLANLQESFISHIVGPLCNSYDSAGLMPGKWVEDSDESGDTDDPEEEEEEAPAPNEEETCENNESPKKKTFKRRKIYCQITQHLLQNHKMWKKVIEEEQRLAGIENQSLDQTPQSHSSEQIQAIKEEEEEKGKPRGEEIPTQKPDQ
Test [9] addresses Mu-type opioid receptor (Homo sapiens, UniProt P35372).
For test [10], the target named is D(1A) dopamine receptor (Homo sapiens, UniProt P21728).
Chain of D(1A) dopamine receptor (P21728 whole entry): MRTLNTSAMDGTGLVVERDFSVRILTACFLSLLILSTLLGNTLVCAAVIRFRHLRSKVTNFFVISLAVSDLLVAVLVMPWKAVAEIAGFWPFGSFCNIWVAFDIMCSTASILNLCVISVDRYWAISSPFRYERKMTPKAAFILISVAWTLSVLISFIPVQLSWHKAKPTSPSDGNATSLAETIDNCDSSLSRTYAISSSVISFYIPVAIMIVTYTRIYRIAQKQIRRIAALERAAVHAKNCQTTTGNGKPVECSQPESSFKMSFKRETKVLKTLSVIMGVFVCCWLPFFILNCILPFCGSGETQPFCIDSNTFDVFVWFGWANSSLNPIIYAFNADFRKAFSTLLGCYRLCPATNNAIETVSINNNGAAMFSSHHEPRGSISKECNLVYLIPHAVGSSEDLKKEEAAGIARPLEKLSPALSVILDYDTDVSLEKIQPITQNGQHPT
For test [11], the target named is T4, 5-hydroxytryptamine receptor 1A (Homo sapiens, UniProt P08908).
T4 sequence (P08908 whole entry): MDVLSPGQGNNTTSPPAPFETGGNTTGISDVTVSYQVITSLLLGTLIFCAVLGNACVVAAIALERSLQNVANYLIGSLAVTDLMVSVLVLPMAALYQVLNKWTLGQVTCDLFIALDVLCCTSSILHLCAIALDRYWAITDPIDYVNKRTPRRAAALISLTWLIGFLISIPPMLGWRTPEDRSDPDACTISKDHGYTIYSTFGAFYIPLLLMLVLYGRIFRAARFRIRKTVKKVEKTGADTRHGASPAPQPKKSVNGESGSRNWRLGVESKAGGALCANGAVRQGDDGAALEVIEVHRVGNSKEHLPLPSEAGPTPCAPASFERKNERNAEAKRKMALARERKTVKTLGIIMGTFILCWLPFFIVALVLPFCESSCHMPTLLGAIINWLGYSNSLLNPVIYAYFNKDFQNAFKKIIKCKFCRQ

The target in test [12] is Voltage-gated inwardly rectifying potassium channel KCNH2 (Homo sapiens, UniProt Q12809). The test is classed as functional.
In test [13] the target is 3',5'-cyclic-AMP phosphodiesterase 4A (Homo sapiens, UniProt P27815). The test is classed as functional.
Chain of 3',5'-cyclic-AMP phosphodiesterase 4A (P27815 whole entry): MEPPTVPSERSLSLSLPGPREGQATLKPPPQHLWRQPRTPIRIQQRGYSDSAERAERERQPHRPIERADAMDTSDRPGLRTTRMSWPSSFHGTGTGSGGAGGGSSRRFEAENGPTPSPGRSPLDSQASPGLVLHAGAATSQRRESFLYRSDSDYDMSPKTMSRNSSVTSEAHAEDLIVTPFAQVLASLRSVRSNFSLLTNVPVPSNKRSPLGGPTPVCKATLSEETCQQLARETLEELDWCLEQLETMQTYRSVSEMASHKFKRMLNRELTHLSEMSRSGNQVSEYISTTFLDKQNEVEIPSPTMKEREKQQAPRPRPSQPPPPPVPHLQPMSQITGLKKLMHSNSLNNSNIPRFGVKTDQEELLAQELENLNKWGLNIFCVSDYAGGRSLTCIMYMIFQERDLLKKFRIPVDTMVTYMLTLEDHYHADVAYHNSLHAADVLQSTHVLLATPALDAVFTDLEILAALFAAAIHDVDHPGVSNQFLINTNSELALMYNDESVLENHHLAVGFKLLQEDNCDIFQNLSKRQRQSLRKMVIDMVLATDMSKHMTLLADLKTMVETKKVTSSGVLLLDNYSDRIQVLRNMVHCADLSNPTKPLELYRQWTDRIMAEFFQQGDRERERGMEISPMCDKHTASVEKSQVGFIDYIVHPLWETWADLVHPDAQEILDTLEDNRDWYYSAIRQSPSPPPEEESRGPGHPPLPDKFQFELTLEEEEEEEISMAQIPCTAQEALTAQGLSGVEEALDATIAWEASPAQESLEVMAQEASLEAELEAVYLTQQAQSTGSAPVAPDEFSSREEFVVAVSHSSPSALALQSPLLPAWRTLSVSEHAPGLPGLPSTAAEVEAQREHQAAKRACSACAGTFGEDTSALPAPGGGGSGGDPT
Test [14] addresses T5, Alpha-2A adrenergic receptor (Homo sapiens, UniProt P08913).
T5 sequence (P08913 whole entry): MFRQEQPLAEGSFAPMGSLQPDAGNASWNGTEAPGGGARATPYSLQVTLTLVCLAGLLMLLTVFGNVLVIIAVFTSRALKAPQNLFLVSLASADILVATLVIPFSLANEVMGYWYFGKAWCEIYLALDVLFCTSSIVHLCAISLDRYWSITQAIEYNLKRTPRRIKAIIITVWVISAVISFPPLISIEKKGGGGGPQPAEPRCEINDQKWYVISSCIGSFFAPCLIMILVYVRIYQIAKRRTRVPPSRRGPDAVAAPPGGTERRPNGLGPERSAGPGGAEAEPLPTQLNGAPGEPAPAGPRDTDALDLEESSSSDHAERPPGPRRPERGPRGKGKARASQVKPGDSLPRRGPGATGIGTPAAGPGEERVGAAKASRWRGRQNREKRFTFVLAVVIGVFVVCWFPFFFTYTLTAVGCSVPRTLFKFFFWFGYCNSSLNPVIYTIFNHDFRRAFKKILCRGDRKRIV

Test [15] concerns the target T6, Alpha-1A adrenergic receptor (Homo sapiens, UniProt P35348).
T6 sequence (P35348 whole entry): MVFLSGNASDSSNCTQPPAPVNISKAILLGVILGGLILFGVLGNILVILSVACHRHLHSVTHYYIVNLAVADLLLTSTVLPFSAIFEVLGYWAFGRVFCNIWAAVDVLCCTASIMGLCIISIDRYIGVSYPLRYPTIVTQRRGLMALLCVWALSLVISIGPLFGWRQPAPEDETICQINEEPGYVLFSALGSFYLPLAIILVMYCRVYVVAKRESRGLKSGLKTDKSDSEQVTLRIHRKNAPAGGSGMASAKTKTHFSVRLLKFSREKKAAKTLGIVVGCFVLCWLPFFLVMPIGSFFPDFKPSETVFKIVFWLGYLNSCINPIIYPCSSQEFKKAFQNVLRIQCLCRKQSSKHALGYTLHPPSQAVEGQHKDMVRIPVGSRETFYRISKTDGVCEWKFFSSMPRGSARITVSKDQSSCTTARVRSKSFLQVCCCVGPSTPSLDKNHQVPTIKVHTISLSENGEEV
Type of test: functional, cell-based.

Test [16] has as its target T1, Prostaglandin G/H synthase 1. The test is classed as functional. This is another data set of the same source.

Some results are limits rather than exact numbers.
Also: assay procedure not described here.

Chain of Mu-type opioid receptor (P35372 whole entry): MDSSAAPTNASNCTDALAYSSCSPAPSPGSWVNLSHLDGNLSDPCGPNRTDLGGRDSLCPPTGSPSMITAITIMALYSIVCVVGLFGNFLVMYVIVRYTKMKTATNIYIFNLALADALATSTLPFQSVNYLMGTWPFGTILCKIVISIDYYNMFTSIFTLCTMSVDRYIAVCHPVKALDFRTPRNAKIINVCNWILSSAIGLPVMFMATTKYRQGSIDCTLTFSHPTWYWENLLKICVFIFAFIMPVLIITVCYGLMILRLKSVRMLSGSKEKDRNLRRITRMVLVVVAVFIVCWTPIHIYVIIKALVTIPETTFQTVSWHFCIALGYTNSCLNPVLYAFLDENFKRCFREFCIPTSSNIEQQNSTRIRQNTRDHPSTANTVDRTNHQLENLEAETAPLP
T1 sequence (P23219 whole entry): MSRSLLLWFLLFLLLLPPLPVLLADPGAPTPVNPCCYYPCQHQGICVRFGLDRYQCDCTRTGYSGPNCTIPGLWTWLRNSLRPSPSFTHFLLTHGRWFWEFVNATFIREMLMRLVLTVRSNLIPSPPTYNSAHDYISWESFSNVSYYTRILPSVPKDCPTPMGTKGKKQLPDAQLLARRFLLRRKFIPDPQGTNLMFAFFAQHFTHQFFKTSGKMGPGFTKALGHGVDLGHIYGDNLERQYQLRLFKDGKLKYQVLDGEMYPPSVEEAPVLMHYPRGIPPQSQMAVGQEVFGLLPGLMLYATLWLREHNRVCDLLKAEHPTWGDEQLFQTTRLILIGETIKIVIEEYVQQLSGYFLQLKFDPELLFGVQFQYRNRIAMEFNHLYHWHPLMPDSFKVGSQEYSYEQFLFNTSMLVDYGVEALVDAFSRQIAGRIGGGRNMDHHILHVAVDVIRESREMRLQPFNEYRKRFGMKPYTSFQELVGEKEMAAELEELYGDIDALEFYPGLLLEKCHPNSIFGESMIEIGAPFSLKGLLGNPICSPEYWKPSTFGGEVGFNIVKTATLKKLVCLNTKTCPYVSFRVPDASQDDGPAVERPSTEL
Chain of Histamine H3 receptor (Q9Y5N1 whole entry): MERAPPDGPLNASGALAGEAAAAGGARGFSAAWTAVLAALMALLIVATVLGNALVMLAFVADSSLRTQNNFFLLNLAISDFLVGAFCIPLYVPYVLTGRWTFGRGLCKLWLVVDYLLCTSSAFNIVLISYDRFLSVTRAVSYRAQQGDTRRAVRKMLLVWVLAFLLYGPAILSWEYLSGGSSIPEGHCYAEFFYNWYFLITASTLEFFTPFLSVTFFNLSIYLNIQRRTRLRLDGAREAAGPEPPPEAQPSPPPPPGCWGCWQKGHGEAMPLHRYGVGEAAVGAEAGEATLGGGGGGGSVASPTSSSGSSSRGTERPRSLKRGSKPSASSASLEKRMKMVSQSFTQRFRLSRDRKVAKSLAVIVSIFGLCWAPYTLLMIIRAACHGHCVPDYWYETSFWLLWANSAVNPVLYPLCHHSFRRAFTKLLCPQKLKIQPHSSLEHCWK

In general, AC50 refers to the concentration giving half of the maximal activity seen. Higher therefore signals activity only at high concentration. Consider `CC(=O)NCCCCCC(=O)O` [ACEXAMIC ACID], for which the AC50 in [1], in test [2], in test [3], in test [4], in test [5] and in test [6] was more than 30 µM in each case. For the same molecule, the AC50 in test [7], in test [8], in test [9], in [10], in [11] and in [12] was more than 30 µM in each case. The concentration at half-maximal activity (AC50) in [13] is more than 30 µM; in test [14] it was more than 30 µM; in test [15] it was 18.9 µM; in [16], more than 30 µM.

Consider `C=C(C)CNc1ccc(C(C)C(=O)O)cc1` (configuration not stated) [ALMINOPROFEN], for which the AC50 in test [1], in test [2], in test [3], in test [4], in test [5] and in test [6] was more than 30 µM throughout. For the same molecule, the AC50 in test [7], in test [8], in test [9], in test [10], in test [11] and in test [12] was more than 30 µM throughout. Moreover, the half-maximal activity concentration (AC50) in test [13], in test [14], in [15] and in test [16] was more than 30 µM each time.

As for `Cc1cc(C2CCCCC2)n(O)c(=O)c1` [CICLOPIROX], the half-maximal activity concentration (AC50) was more than 30 µM in test [1]; more than 30 µM in [2]; more than 30 µM in [3]; 25.4 µM in test [4]; more than 30 µM in test [5]; more than 30 µM in test [6]. Further, the AC50 in test [7], in test [8], in [9], in test [10], in test [11] and in test [12] was more than 30 µM each time. For the same molecule, the AC50 in [13] is more than 30 µM; in test [14] it was more than 30 µM; in test [15] it was 23.1 µM; in test [16], more than 30 µM.

Take `C[N+](C)(C)CCOP(=O)(O)OP(=O)([O-])OC[C@H]1O[C@@H](n2ccc(N)nc2=O)[C@H](O)[C@@H]1O` [CITICOLINE]: the AC50 in test [1], in [2], in [3], in test [4], in test [5] and in test [6] was more than 30 µM in each case. Besides, the AC50 in test [7], in test [8], in test [9], in test [10], in test [11] and in test [12] was more than 30 µM throughout. Further, the AC50 in test [13], in test [14], in test [15] and in test [16] was more than 30 µM each time.

Take `C[C@H]1O[C@@H](O[C@H]2CC[C@@]3(C)[C@H](CC[C@@H]4[C@@H]3C[C@@H](O)[C@]3(C)[C@@H](C5=CC(=O)OC5)CC[C@]43O)C2)C[C@H](O)[C@@H]1O[C@H]1C[C@H](O)[C@H](O[C@H]2C[C@H](O)[C@H](O[C@@H]3O[C@H](CO)[C@@H](O)[C@H](O)[C@H]3O)[C@@H](C)O2)[C@@H](C)O1` [DESLANOSIDE]: the concentration at half-maximal activity (AC50) in [1], in test [2], in [3], in test [4], in test [5] and in [6] was more than 30 µM throughout. In addition, the AC50 in test [7], in [8], in test [9], in [10], in test [11] and in test [12] was more than 30 µM in each case. Further, the concentration at half-maximal activity (AC50) in test [13], in test [14], in test [15] and in [16] was more than 30 µM throughout.

For `CC[C@H]1OC(=O)[C@H](C)[C@@H](O[C@H]2C[C@@](C)(OC)[C@@H](O)[C@H](C)O2)[C@H](C)[C@@H](O[C@@H]2O[C@H](C)C[C@H](N(C)C)[C@H]2O)[C@](C)(O)C[C@@H](C)[C@@H]2N[C@@H](COCCOC)O[C@H]([C@H]2C)[C@]1(C)O` [DIRITHROMYCIN], the AC50 was more than 30 µM in [1]; 9.63 µM in test [2]; more than 30 µM in test [3]; more than 30 µM in test [4]; more than 30 µM in test [5]; more than 30 µM in test [6]. Besides, the AC50 in test [7], in test [8], in test [9], in test [10], in [11] and in test [12] was more than 30 µM in each case. In addition, the concentration at half-maximal activity (AC50) in [13], in test [14], in test [15] and in test [16] was more than 30 µM each time.

Take `O=C(O)Cc1ccccc1Oc1ccc(Cl)cc1Cl` [FENCLOFENAC]: the half-maximal activity concentration (AC50) in test [1], in [2], in test [3], in test [4], in [5] and in [6] was more than 30 µM in each case. Besides, the AC50 in test [7], in test [8], in [9], in test [10], in test [11] and in [12] was more than 30 µM throughout. Moreover, the concentration at half-maximal activity (AC50) in [13], in [14], in [15] and in test [16] was more than 30 µM in each case.
